One data set has as its system MCF7. Put plainly: Cytotoxicity against human MCF7 cells after 5 days by SRB assay. The format is functional. Particulars: MCF7, 120 h. (In general: The SRB assay estimates cell density from bound dye.)
The next data set relates to MDA-MB-468. Put plainly: Cytotoxicity against human MDA-MB-468 cells after 5 days by SRB assay. It is filed as functional. Particulars: MDA-MB-468, 120 h.
The test system of another data set is MDA-MB-231. Put plainly: Cytotoxicity against human MDA-MB-231 cells after 5 days by SRB assay. Particulars: MDA-MB-231, 120 h. It is filed as functional.
Data set [1] is described as follows: Cytotoxicity against human SKBR3 cells after 5 days by SRB assay. The format is functional. The note with it: SK-BR-3, 120 h.
The next data set concerns the target Cytochrome P450 2C9 (Homo sapiens, UniProt P11712). Put plainly: Inhibition of CYP2C9 (unknown origin) using MFC substrate after 45 mins by fluorescence assay. It is filed as ADME.
The next data set concerns the target Cytochrome P450 2C19 (Homo sapiens, UniProt P33261). Put plainly: Inhibition of CYP2C19 (unknown origin) using MFC substrate after 30 mins by fluorescence assay. The format is ADME.
Data set [2] can be described thus: Cmax in SCID mouse at 25 mg/kg, po by LCMS/MS method. It is filed as ADME, organism-based. Further details: dose 25 mg/kg, route oral. Particulars: in vivo.
Data set [3] is described as follows: AUC in SCID mouse at 25 mg/kg, po by LCMS/MS method. The format is ADME, organism-based. Also noted: dose 25 mg/kg, route oral. Particulars: plasma.
Data set [4] addresses Vascular endothelial growth factor receptor 2 (Homo sapiens, UniProt P35968). Put plainly: Inhibition of KDR (unknown origin) by FRET-based homogeneous assay.

Sequence of Vascular endothelial growth factor receptor 2 (P35968 whole entry): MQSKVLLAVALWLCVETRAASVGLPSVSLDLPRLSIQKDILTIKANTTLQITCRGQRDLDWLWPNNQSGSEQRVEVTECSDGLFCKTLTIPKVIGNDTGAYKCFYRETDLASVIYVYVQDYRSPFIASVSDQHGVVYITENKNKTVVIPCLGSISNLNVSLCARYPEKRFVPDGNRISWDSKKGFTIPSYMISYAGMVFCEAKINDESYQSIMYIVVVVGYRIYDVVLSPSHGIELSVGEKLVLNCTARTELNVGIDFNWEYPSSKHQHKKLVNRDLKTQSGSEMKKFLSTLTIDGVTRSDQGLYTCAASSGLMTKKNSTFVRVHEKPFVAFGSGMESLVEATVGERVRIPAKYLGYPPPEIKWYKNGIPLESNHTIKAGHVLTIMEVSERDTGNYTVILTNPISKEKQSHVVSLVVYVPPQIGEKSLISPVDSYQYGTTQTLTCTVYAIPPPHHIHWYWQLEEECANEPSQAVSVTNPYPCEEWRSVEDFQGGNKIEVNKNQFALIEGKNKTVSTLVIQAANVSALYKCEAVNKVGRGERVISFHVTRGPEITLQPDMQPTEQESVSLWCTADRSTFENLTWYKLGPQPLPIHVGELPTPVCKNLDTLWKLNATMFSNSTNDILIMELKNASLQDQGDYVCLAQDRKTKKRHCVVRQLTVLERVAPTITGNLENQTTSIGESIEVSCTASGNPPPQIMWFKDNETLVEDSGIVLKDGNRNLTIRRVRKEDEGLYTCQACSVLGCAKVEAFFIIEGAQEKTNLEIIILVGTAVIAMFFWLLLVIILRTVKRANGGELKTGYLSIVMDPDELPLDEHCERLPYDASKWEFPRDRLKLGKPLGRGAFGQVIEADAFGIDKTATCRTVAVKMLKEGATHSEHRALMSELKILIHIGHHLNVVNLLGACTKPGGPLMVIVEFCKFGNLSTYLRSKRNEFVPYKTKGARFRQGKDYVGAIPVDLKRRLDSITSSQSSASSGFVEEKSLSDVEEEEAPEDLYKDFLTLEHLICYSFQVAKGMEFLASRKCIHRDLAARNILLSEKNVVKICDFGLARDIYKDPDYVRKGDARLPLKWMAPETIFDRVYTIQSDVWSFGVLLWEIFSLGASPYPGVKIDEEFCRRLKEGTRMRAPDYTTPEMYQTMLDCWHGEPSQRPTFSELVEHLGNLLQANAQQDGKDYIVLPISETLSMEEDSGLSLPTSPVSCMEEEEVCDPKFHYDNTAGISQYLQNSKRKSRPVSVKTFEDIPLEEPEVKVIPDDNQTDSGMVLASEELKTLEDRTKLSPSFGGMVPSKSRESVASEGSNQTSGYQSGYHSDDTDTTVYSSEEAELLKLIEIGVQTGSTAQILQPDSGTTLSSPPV
Sequence of Cytochrome P450 2C9 (P11712 whole entry): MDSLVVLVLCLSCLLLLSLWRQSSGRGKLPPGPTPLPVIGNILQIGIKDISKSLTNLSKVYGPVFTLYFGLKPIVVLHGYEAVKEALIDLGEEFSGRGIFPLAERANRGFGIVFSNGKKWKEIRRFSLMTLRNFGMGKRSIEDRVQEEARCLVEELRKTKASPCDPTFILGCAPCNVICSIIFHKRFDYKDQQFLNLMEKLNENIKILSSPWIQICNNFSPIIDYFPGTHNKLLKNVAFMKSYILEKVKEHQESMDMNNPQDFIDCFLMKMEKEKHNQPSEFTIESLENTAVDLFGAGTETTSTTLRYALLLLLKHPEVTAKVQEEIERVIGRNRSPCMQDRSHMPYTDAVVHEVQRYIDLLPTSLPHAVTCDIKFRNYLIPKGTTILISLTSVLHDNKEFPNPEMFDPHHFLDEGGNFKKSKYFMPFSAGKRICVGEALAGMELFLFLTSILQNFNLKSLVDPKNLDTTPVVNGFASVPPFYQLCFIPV
Sequence of Cytochrome P450 2C19 (P33261 whole entry): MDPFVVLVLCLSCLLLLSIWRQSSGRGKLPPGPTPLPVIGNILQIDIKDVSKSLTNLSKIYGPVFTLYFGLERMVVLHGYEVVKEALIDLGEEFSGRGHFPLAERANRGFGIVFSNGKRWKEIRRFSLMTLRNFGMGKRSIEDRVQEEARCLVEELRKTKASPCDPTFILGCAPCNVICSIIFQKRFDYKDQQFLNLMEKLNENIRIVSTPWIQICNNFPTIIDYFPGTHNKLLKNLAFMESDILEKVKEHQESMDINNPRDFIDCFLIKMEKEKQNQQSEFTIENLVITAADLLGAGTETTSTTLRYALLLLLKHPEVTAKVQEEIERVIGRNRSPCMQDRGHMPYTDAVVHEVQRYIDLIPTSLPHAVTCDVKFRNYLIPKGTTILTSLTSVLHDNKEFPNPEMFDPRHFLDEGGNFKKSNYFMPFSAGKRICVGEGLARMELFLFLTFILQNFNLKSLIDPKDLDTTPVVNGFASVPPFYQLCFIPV

For `O=C1Nc2ccccc2[C@]12C[C@H]2c1ccc2c(/C=C/c3ccc(CN4CCCC4)cc3)n[nH]c2c1` (relative stereo), the GI50 was 50 nM in the data set on MCF7, less than 10 nM in the data set on MDA-MB-468, 1900 nM in the data set on MDA-MB-231 and 4100 nM in [1].

On to `COc1ccc2c(c1)[C@]1(C[C@H]1c1ccc3c(/C=C/c4ccc(CN5CCCCC5)nc4)n[nH]c3c1)C(=O)N2` (relative stereo), for which the IC50 against Cytochrome P450 2C9 was 1400 nM; on Cytochrome P450 2C19 it was 600 nM. Further, the GI50 was found to be 0.01 nM in the data set on MCF7, 0.02 nM in the data set on MDA-MB-468, 3900 nM in the data set with MDA-MB-231 and 9200 nM in data set [1]. Further, in [2], the Cmax turned out to be 290 ng/mL. Also, the AUC in data set [3] was determined as 740 ng·h/mL.

Take `Cc1ccc2c(c1)[C@]1(C[C@H]1c1ccc3c(/C=C/c4ccc(CN5CCOCC5)cc4)n[nH]c3c1)C(=O)N2` (relative stereo): the GI50 turned out to be 80 nM in the data set with MCF7, 30 nM in the data set on MDA-MB-468, 560 nM with MDA-MB-231 and 8800 nM in [1].

As to `CN(C)Cc1ccc(/C=C/c2n[nH]c3cc([C@@H]4C[C@@]45C(=O)Nc4ccc(Cl)cc45)ccc23)cc1` (relative stereo), the GI50 with MCF7 was determined as 0.01 nM; in the data set with MDA-MB-468, 0.06 nM; with MDA-MB-231 it was 930 nM; in data set [1] it was 3500 nM.

As for `O=C1Nc2ccccc2[C@]12C[C@H]2c1ccc2c(/C=C/c3ccc(CN4CCCCC4)cc3)n[nH]c2c1` (relative stereo), in [4], 12 nM corresponded to half-maximal inhibition (IC50). In addition, the GI50 with MCF7 came to 600 nM; in the data set on MDA-MB-468 it was 500 nM; in the data set with MDA-MB-231 it was 900 nM; in data set [1] it was 800 nM.

For `CCc1ccc2c(c1)[C@]1(C[C@H]1c1ccc3c(/C=C/c4ccc(CN(C)C)cc4)n[nH]c3c1)C(=O)N2` (relative stereo), the GI50 in the data set with MCF7 is 240 nM; with MDA-MB-468, 10 nM; with MDA-MB-231 it was 2000 nM; in data set [1] it was 2000 nM.

For the compound `CN(C)Cc1ccc(/C=C/c2n[nH]c3cc([C@@H]4C[C@@]45C(=O)Nc4ccc(F)cc45)ccc23)cc1` (relative stereo), the GI50 worked out at 100 nM in the data set with MCF7, 10 nM in the data set on MDA-MB-468, 550 nM in the data set with MDA-MB-231 and 2200 nM in data set [1].

The compound `COc1ccc2c(c1)[C@]1(C[C@H]1c1ccc3c(/C=C/c4cc(F)c(CN5CCOCC5)c(F)c4)n[nH]c3c1)C(=O)N2` (relative stereo) showed an IC50 in data set [4] of 7900 nM. Further, the GI50 in the data set on MCF7 is 50 nM; in the data set on MDA-MB-468, 60 nM; in the data set on MDA-MB-231 it was 1700 nM; in [1], 3700 nM.

In the case of `Cc1ccc(/C=C/c2n[nH]c3cc([C@@H]4C[C@@]45C(=O)Nc4ccccc45)ccc23)cn1`, the GI50 in the data set on MCF7 stood at 280 nM; in the data set on MDA-MB-468, 140 nM; with MDA-MB-231, 3800 nM; in [1], 7600 nM.

For the compound `CNC(=O)c1ccccc1Sc1ccc2c(/C=C/c3ccccn3)n[nH]c2c1` [AXITINIB], the values for the GI50 (in the data set with MCF7; in the data set with MDA-MB-468; in [1]) were 2300 nM, 2800 nM and 4600 nM, respectively.

With `O=C1Nc2ccccc2[C@]12C[C@H]2c1ccc2c(/C=C/c3ccc(CN4CCCCC4)nc3)n[nH]c2c1` (relative stereo), the GI50 with MCF7 is 0.01 nM; with MDA-MB-468, 0.4 nM; with MDA-MB-231, 35800 nM; in data set [1] it was 3400 nM.

`Cc1ccc2c(c1)[C@]1(C[C@H]1c1ccc3c(/C=C/c4ccc(CN(C)C)cc4)n[nH]c3c1)C(=O)N2` (relative stereo): the GI50 stood at 0.01 nM in the data set on MCF7, 0.05 nM in the data set on MDA-MB-468, 2800 nM in the data set on MDA-MB-231 and 3400 nM in [1].

One may read the GI50 as the concentration that inhibits growth by half. Broadly, the IC50 is the concentration that gives 50% inhibition. A higher IC50 goes with a need for much substance. What is called Cmax is the peak of the concentration-time curve. As a reminder, the AUC is the area under the concentration-time curve, a measure of exposure. A high value points to high exposure.

The values are drawn from ChEMBL document CHEMBL3351767, “The discovery of Polo-like kinase 4 inhibitors: design and optimization of spiro[cyclopropane-1,3'[3H]indol]-2'(1'H).ones as orally bioavailable antitumor agents” (J Med Chem, 2015).
